Measured values: patent US20030166531A1, “Methods for modulating an immune response by modulating the interaction between CTLA4 and PP2A” (Genetics Institute, Inc., priority 2001, published 2003)
Values belong to the compound of their own block, whether it stands above or below them.

How the values were obtained:
[1] = accumulates in filter feeding organisms such as shellfish; cited from earlier work
[2] = target: mutant K-less CTLA4 (K152A/K155A/K156A) expressed in doxycycline-induced Jurkat T cells (UniProt P16410); test: cell-based or functional assay
IL-2 gene transcription = test: Luciferase reporter assay under IL-2 promoter/enhancer in CTLA4-transfected Jurkat T cells stimulated with SEE and APCs; type: cell-based; conditions: doxycycline-induced Jurkat cells, TCR-CTLA4 co-ligation with SEE and APCs, at maximal RLU response
Description: FIGS. 2A-2B depict the inhibition of IL-2 promoter/enhancer controlled luciferase reporter gene transcription by wild type (FIG. 2A) or K-less (FIG. 2B) CTLA4 molecules. Wild type or K-less CTLA4-transfected T cells were stimulated for 4 hours with antigen presenting cells and increasing concentrations of SEE antigen in the absence (upper data points) or presence (lower data points) of doxycycline (5 μg/ml). Cells were lysed and a luciferase assay was performed.
The panel of Jurkat T cells transfected with a regulatable, doxycycline sensitive CTLA4 cDNA has been previously described (Carreno, B. M. et al. (2000) J. Immunol. 165:1352-1356; Baroja, M. L. et al. (2000) J. Immunol. 164:49-55). A luciferase reporter cDNA under the control of the interleukin-2 promoter and enhancer elements was transfected in these cells, and clones isolated after limiting dilution were used for these experiments. A 0.45 lymphoblastoid B cell line that expresses HLA-DR1 and B7.1 was also used. Both cell lines were cultured under standard conditions.
Doxycycline treated Jurkat T cells (0.25×10^6 cells/group) were stimulated for 4 hours with 0.45 lymphoblastoid B cells (ratio 2:1) preincubated overnight with different concentrations of SEE. Luciferase assays were performed using the Promega Luciferase Assay System (Promega, Madison, Wis.). […]

Chain of UniProt P16410 (P16410 36-223, stated change not applied): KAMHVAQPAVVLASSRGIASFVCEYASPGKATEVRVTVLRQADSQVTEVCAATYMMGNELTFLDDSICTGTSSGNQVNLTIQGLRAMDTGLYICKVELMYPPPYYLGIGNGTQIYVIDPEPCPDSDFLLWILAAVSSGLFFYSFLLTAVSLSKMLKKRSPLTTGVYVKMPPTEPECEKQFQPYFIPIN

Compound: C=C1[C@@H](O)[C@@H]2O[C@]3(CC[C@H](/C=C/[C@@H](C)[C@@H]4CC(C)=C[C@@]5(O[C@H](C[C@@](C)(O)C(=O)O)CC[C@H]5O)O4)O3)CC[C@H]2O[C@@H]1[C@@H](O)C[C@H](C)[C@H]1O[C@@]2(CCCCO2)CC[C@H]1C [okadaic acid]
toxicity when consumed by humans [1]: causes diarrhetic shellfish poisoning

inhibition of luciferase activity (IL-2 promoter/enhancer reporter) upon TCR-CTLA4 co-ligation [2]: 70 to 80%
Compound: endogenous PP2AA (65 kD regulatory subunit of PP2A) of Jurkat T cells (from UniProt P30153 2-589)

Compound: wild type CTLA4: wild type CTLA4 expressed from a doxycycline-regulatable cDNA in transfected Jurkat T cells
inhibition of luciferase activity (IL-2 promoter/enhancer reporter) (IL-2 gene transcription): 35-55%
